From patent publication US10399968B2, “Hydroxyalkyl thiadiazole derivatives” (Daiichi Sankyo Company, Limited, priority 2015, dated 2019)
pIC50: −log10 of the molar value. Converted amounts (≈) assume the structure as drawn. Read-outs that look alike come from different tables or passages of the source.

Key:
[1] = Solubility in water (JP1 / JP2 fluids); type: physicochemical; details: thermodynamic from solid
Experimental: A 10 mmol/L solution of the test compound was prepared in DMSO and dispensed 100 μL of 10 mmol/L DMSO stock solutions into labeled glass tubes in duplicate, one for Japanese Pharmacopeia First Fluid (JP1) and second for Japanese Pharmacopeia Second Fluid (JP2). After evaporation of DMSO from each tube, 500 μL of JP1 and JP2 fluid were added in each tube, respectively. These tubes were sonicated for 1 minute and placed on shaker for 30 minutes with an interval of 30 seconds at every 5 minute. Tubes were placed in dark at room temperature for 1 hour and solution was filtered through membrane filter. The filtrate was diluted 2-fold and 10-fold. The resulting test solutions was analyzed and quantified against the standards using UPLC (standard preparation—10 mmol/L solution in DMSO is serially diluted with 50% aqueous acetonitrile solution to prepare 2 solutions; 100 μmol/L standard solution and 5 μmol/L standard solutions).

S. aureus ATCC 29213 = assay: Susceptibility of bacteria, broth microdilution MIC; type: cell-based; details: Staphylococcus aureus, ATCC29213
Experimental: The antibacterial activity of the compounds of the present invention was tested by the broth microdilution method. The assay was carried out according to the CLSI guidelines for managing the procedures of susceptibility tests: “M7-A7 Methods for Dilution Antimicrobial Susceptibility Tests for Bacteria That Grow Aerobically; Approved Standard-Seventh Edition (2006)”. Test strains were grown on appropriate agar plates overnight. A broth containing the test compound diluted serially 2-fold and diluents were dispensed at 100 μL to each well of a 96-well microplate. As a growth control, a well with a broth not containing the test compound was also prepared. Colonies grown on the plates were suspended in saline, adjusted to 0.5 McFarland (OD625=0.08 to 0.10) using a colorimeter, and then diluted 10-fold with saline. The bacterial suspension was inoculated at 4 μL into each well of the microplate using a bacterial suspension inoculation apparatus. The inoculated microplate was incubated at 35° C. overnight (about 20 hours). The growth condition was observed by the naked eye, and the minimum concentration to inhibit bacterial proliferation was defined as a minimum inhibitory concentration (MIC). The MICs of compounds disclosed herein for E. faecium, Streptococcus pneumoniae and Haemophilus influenzae are shown in Table 2, while for S. aureus in Table 3.

[2] = test system: Clostridium difficile ATCC 43255; assay: Susceptibility of Clostridium difficile, agar dilution MIC; type: cell-based; details: Clostridioides difficile, ATCC43255, anaerobic
Experimental: The antibacterial activity of the compounds of the present invention against Clostridium difficile clinical isolates was tested by the agar dilution method. The assay was carried out according to the CLSI guidelines for managing the procedures of susceptibility tests “M11-A8, Methods for Antimicrobial Susceptibility Testing of Anaerobic Bacteria; Approved Standard-Eighth Edition. CLSI document (2012)”.
The test strains were spread on supplemented Brucella agar (SBA) plates and grown at 36° C. under anaerobic condition for 42 to 48 hours. The test compound dilutions were prepared with Brucella broth and SBA plates containing dilution of test compound were prepared. As an anaerobic growth control, plates not containing the test compound were also prepared. Colonies grown on plates were suspended with Brucella broth to adjust the turbidity to 0.5 McFarland using a densitometer. Suspension (1-2 μL) of the test strains was inoculated onto each agar surface by using a bacterial suspension inoculation apparatus. After anaerobic incubation at 36° C. for 42 to 48 hours, absence and presence of growth of each strain were examined with unaided eye. The MIC was determined at which a marked reduction occurs in the appearance of growth on the test plate as compared to that of growth on the anaerobic control plates.

P. acnes ATCC 6921 = assay: Susceptibility of P. acnes, agar dilution MIC; type: cell-based; details: Cutibacterium acnes, ATCC6921, anaerobic
Experimental: (§1) The antibacterial activity of the compounds of the present invention against P. acnes clinical isolates was tested by the agar dilution method. The assay was carried out according to the CLSI guidelines document (Clinical and Laboratory Standards Institute, 2012 & 2016). The test strains were spread on supplemented Brucella agar (SBA) plates and grown for 42 to 48 hours at 36° C. under anaerobic condition. The test compound dilutions were prepared with Brucella broth and SBA plates containing dilution of test compound were prepared. As an anaerobic growth control and to check the aerobic contamination, plates not containing the test compound were also prepared. Colonies grown on plates were suspended with Brucella broth to adjust the turbidity to 0.5 McFarland using a densitometer. Suspension (1-2 μL) of the test strains was inoculated onto each agar surface by using a bacterial suspension inoculation apparatus (multipoint inoculator). After anaerobic incubation for 42 to 48 hours at 36° C., absence and presence of growth of each strain on growth control plates and test compounds plate were examined with unaided eye. The MIC was determined at which a marked reduction occurs in the appearance of growth on the test plate as compared to that of growth on the anaerobic control plates.

P. acnes ATCC 6523 = assay: Susceptibility of P. acnes, agar dilution MIC; type: cell-based; details: Cutibacterium acnes, ATCC6523, anaerobic
Experimental: as §1

P. acnes IHMA 103740 = assay: Susceptibility of P. acnes, agar dilution MIC; type: cell-based; details: Cutibacterium acnes, IHMA103740, anaerobic
Experimental: as §1

P. acnes IHMA 775486 = assay: Susceptibility of P. acnes, agar dilution MIC; type: cell-based; details: Cutibacterium acnes, IHMA775486, anaerobic
Experimental: as §1

[3] = test system: Clostridium difficile 2009155, a NAP1/027 strain; assay: Hamster CDI model; type: in vivo; details: 0.3 mg/kg/day by oral route, 5 days
Experimental: The in vivo efficacy of test compounds were evaluated in a hamster CDI model caused by Clostridium difficile 2009155, a NAP1/027 strain. Syrine hamsters (6-8-weeks old) were primed with a single subcutaneous injection of clindamycin (30 mg/kg) 1-5 days prior to infection. Hamsters were infected by oral gavage with 1 ml of spore suspension ([…]) prepared in PBS. The drug was administered to the hamsters 6 hours post infection by oral or subcutaneous route at an interval of 24 hours for 5 days. The death and survival of the non-treated group and the drug-administered group were recorded once daily for 35 days.

[4] = molecular target: Clostridium difficile DNA gyrase (Clostridioides difficile, UniProt Q18C89); assay: DNA supercoiling inhibition assay; type: biochemical; details: supercoiling of relaxed pBR322 DNA, 60 minutes at 37° C.
Experimental: DNA supercoiling assays (30 μL reaction) were performed in a buffer containing 15 mM Tris-HCl pH 7.5, 13% glycerol, 6 mM MgCl2, 0.1 mg/mL BSA, 70 mM KCl, 1 mM dithioerythritol, 400 ng of DNA substrate (relaxed pBR322 DNA) and different concentrations of test compounds and/or standards. The dilutions of test compounds and standards were prepared in 20% dimethylsulfoxide (DMSO) and added 3 μL/reaction. The reaction was started by adding 2 μL amounts of Clostridium difficile DNA gyrase into the reaction mixtures and reactions were allowed to proceed for 60 minutes at 37° C. A reaction was carried out by adding 3 μL of 20% DMSO instead of test compound as full reaction control, and another reaction was carried out by adding sterile water instead of the enzyme as no reaction control.
Reactions were stopped by the addition of 5 μL of 6×loading dye and were analyzed by electrophoresis through 1.0% agarose gels with 1×TAE running buffer. Gels were run at 60 V for 3 hours, stained with EtBr, and visualized by Gel Doc system (BioRad). Intensity of the supercoiled DNA bands was quantified, and the IC50 of Clostridium difficile DNA gyrase was calculated using Graph Pad Prism.

[5] = test system: Haemophilus influenzae ATCC 49247; assay: Susceptibility of bacteria, broth microdilution MIC; type: cell-based; details: ATCC49247
Experimental: (§2) The antibacterial activity of the compounds of the present invention was tested by the broth microdilution method. The assay was carried out according to the CLSI guidelines for managing the procedures of susceptibility tests: “M7-A7 Methods for Dilution Antimicrobial Susceptibility Tests for Bacteria That Grow Aerobically; Approved Standard-Seventh Edition (2006)”. Test strains were grown on appropriate agar plates overnight. A broth containing the test compound diluted serially 2-fold and diluents were dispensed at 100 μL to each well of a 96-well microplate. As a growth control, a well with a broth not containing the test compound was also prepared. Colonies grown on the plates were suspended in saline, adjusted to 0.5 McFarland (OD625=0.08 to 0.10) using a colorimeter, and then diluted 10-fold with saline. The bacterial suspension was inoculated at 4 μL into each well of the microplate using a bacterial suspension inoculation apparatus. The inoculated microplate was incubated at 35° C. overnight (about 20 hours). The growth condition was observed by the naked eye, and the minimum concentration to inhibit bacterial proliferation was defined as a minimum inhibitory concentration (MIC).

E. faecium ATCC 29212 = assay: as above; type: cell-based; details: Enterococcus faecium, ATCC29212
Experimental: as §2

[6] = test system: Streptococcus pneumoniae ATCC 49619; assay: as above; type: cell-based; details: ATCC49619
Experimental: as §2

[7] = Japanese Pharmacopeia Second Fluid (JP2), pH 6.8, aqueous buffer, read-out: Solubility JP2
[8] = Japanese Pharmacopeia First Fluid (JP1), pH 1.2, simulated gastric fluid, read-out: Solubility JP1

Sequence of Clostridium difficile DNA gyrase (Q18C90 entry or part of it): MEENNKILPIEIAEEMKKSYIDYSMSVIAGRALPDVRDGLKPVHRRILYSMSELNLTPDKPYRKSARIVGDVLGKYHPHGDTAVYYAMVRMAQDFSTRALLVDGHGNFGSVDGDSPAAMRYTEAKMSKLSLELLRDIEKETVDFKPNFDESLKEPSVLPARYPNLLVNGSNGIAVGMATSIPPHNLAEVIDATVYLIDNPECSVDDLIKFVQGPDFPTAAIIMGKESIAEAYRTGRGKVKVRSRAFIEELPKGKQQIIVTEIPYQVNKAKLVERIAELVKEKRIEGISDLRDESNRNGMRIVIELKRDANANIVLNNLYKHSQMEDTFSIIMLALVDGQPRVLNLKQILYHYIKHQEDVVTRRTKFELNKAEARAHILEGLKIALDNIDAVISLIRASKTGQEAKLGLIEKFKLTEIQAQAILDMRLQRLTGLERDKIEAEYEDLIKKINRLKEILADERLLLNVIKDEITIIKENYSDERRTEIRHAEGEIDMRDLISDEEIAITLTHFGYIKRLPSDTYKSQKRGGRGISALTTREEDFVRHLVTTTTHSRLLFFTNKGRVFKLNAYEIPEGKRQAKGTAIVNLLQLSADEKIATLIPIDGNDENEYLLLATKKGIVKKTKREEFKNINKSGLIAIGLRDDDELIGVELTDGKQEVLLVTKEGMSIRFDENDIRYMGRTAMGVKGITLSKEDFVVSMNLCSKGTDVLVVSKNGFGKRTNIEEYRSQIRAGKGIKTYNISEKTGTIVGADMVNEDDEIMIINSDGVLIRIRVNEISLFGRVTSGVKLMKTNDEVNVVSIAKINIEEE
Sequence of Clostridium difficile DNA gyrase (Q18C89 entry or part of it): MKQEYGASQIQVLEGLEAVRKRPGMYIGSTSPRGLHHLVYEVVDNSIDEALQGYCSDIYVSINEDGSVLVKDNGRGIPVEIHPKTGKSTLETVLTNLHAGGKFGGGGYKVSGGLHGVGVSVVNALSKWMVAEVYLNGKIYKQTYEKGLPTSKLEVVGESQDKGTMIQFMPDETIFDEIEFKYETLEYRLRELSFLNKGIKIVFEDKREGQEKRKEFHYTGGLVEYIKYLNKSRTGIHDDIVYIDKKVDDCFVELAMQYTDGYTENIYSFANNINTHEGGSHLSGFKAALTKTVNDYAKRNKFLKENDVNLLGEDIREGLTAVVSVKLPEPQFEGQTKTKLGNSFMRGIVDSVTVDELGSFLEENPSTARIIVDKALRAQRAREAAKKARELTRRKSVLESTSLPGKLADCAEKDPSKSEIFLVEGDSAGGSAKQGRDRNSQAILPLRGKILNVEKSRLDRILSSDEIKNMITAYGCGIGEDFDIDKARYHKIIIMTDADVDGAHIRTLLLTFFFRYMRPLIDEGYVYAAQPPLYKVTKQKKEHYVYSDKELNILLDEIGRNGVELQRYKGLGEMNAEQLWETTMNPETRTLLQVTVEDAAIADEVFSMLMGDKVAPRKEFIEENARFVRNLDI

CCO[C@H]1CN(c2nnc(C(C)(C)O)s2)CC[C@H]1NC(=O)c1nc(Cl)c(CC)[nH]1 [Compound No. 7, 4-Chloro-N-{(3S,4R)-3-ethoxy-1-[5-(2-hydroxypropan-2-yl)-1,3,4-thiadiazol-2-yl]piperidin-4-yl}-5-ethyl-1H-imidazole-2-carboxamide]
solubility at 30 min [1, 7]: 611 µg/mL (≈ 1380 µM) | MIC (S. aureus ATCC 29213): 0.5 µg/mL (≈ 1.13 µM) | MIC [2]: 0.125 µg/mL (≈ 0.282 µM)

CCc1[nH]c(C(=O)N[C@@H]2CCN(c3nnc(C(O)CO)s3)C[C@@H]2OC)nc1Cl (stereo in doubt) [Compound No. 8, 4-Chloro-N-[(3S,4R)-1-{5-[(1S)-1,2-dihydroxyethyl]-1,3,4-thiadiazol-2-yl}-3-methoxypiperidin-4-yl]-5-ethyl-1H-imidazole-2-carboxamide]
solubility at 30 min [1, 8]: 728 µg/mL (≈ 1690 µM) | solubility at 30 min [1, 7]: 125 µg/mL (≈ 290 µM) | MIC (S. aureus ATCC 29213): 4 µg/mL (≈ 9.28 µM) | MIC (P. acnes ATCC 6921): 0.25 µg/mL (≈ 0.58 µM) | MIC (P. acnes ATCC 6523): 0.25 µg/mL (≈ 0.58 µM) | MIC (P. acnes IHMA 103740): 0.25 µg/mL (≈ 0.58 µM) | MIC (P. acnes IHMA 775486): 0.25 µg/mL (≈ 0.58 µM) | MIC [2]: 0.125 µg/mL (≈ 0.29 µM)

CCc1[nH]c(C(=O)N[C@@H]2CCN(c3nnc(C(C)CO)s3)C[C@@H]2OC)nc1Cl (stereo partly drawn) [Compound No. 6, 4-Chloro-5-ethyl-N-{(3S,4R)-1-[5-(1-hydroxypropan-2-yl)-1,3,4-thiadiazol-2-yl]-3-methoxypiperidin-4-yl}-1H-imidazole-2-carboxamide]
MIC (S. aureus ATCC 29213): 0.5 µg/mL (≈ 1.17 µM) | MIC (P. acnes ATCC 6921): 0.125 µg/mL (≈ 0.291 µM) | MIC (P. acnes ATCC 6523): 0.125 µg/mL (≈ 0.291 µM) | MIC (P. acnes IHMA 103740): 0.25 µg/mL (≈ 0.583 µM) | MIC (P. acnes IHMA 775486): 0.25 µg/mL (≈ 0.583 µM) | MIC [2]: 0.125 µg/mL (≈ 0.291 µM)

CCc1[nH]c(C(=O)N[C@@H]2CCN(c3nnc(C(C)(O)CO)s3)C[C@@H]2OC)nc1Cl (stereo in doubt) [Compound No. 11, 4-Chloro-N-[(3S,4R)-1-{5-[(2S)-1,2-dihydroxypropan-2-yl]-1,3,4-thiadiazol-2-yl}-3-methoxypiperidin-4-yl]-5-ethyl-1H-imidazole-2-carboxamide]
solubility at 30 min [1, 8]: 884 µg/mL (≈ 1990 µM) | solubility at 30 min [1, 7]: 264 µg/mL (≈ 593 µM) | MIC (S. aureus ATCC 29213): 1 µg/mL (≈ 2.25 µM) | survival on day 35 [3]: 100% | MIC [2]: 0.06 µg/mL (≈ 0.135 µM) | pIC50 [4]: 7.57

CCc1[nH]c(C(=O)N[C@@H]2CCN(c3nnc(C(O)CO)s3)C[C@@H]2OC)nc1Cl (stereo in doubt) [Compound No. 9, 4-Chloro-N-[(3S,4R)-1-{5-[(1R)-1,2-dihydroxyethyl]-1,3,4-thiadiazol-2-yl}-3-methoxypiperidin-4-yl]-5-ethyl-1H-imidazole-2-carboxamide]
solubility at 30 min [1, 8]: 862 µg/mL (≈ 2000 µM) | solubility at 30 min [1, 7]: 220 µg/mL (≈ 511 µM) | MIC (S. aureus ATCC 29213): 4 µg/mL (≈ 9.28 µM) | MIC (P. acnes ATCC 6921): 0.125 µg/mL (≈ 0.29 µM) | MIC (P. acnes ATCC 6523): 0.125 µg/mL (≈ 0.29 µM) | MIC (P. acnes IHMA 103740): 0.125 µg/mL (≈ 0.29 µM) | MIC (P. acnes IHMA 775486): 0.125 µg/mL (≈ 0.29 µM) | MIC [2]: 0.125 µg/mL (≈ 0.29 µM)

CCO[C@H]1CN(c2nnc(C(C)O)s2)CC[C@H]1NC(=O)c1nc(Cl)c(CC)[nH]1 (stereo partly drawn) [Compound No. 1, 4-Chloro-N-{(3S,4R)-3-ethoxy-1-[5-(1-hydroxyethyl)-1,3,4-thiadiazol-2-yl]piperidin-4-yl}-5-ethyl-1H-imidazole-2-carboxamide]
MIC (S. aureus ATCC 29213): 0.5 µg/mL (≈ 1.17 µM) | MIC [5]: 2 µg/mL (≈ 4.66 µM) | MIC (E. faecium ATCC 29212): 0.25 µg/mL (≈ 0.583 µM) | MIC [6]: 0.25 µg/mL (≈ 0.583 µM) | survival on day 35 [3]: 100% | MIC [2]: 0.03 µg/mL (≈ 0.0699 µM) | pIC50 [4]: 8.06
